Reference: patent US11401255B2, “Small molecule activators of Parkin enzyme function” (Mayo Foundation for Medical Education and Research, priority 2016, dated 2022)

Biological target: CYP 2C9 (Homo sapiens (Human), UniProt P11712)
Experiment: P450-Glo CYP450 inhibition, CYP 2C9
Format: in vitro ADME
Details: human, P450-Glo Assay System (Promega), CYP 2C9 membranes, CYP 2C9, reference inhibitor 120 uM
Experimental: CYP450 inhibition profiling provides valuable information regarding any possible drug-drug interactions for a test compound.
All experiments were performed using P450-Glo™ Assay Systems (Promega) in accordance with the manufacturer's protocols. The P450-Glo™ Assays provide a luminescent readout-based method for measuring cytochrome P450 activity. A conventional cytochrome P450 reaction was performed by incubating the cytochrome P450 and a luminogenic cytochrome P450 substrate. The substrates in the P450-Glo™ assays are derivatives of beetle luciferin. The derivatives themselves are not substrates for luciferase but are converted by cytochrome P450s to luciferin, which in turn reacts with luciferase to produce light. The amount of light produced was directly proportional to cytochrome P450 activity. All test points were performed in quadruplicates. Control membranes (without CYPs) represented the Negative control (baseline).
The following reference compounds were used to assess CYP inhibition: […]

Sequence of CYP 2C9 (P11712 whole entry): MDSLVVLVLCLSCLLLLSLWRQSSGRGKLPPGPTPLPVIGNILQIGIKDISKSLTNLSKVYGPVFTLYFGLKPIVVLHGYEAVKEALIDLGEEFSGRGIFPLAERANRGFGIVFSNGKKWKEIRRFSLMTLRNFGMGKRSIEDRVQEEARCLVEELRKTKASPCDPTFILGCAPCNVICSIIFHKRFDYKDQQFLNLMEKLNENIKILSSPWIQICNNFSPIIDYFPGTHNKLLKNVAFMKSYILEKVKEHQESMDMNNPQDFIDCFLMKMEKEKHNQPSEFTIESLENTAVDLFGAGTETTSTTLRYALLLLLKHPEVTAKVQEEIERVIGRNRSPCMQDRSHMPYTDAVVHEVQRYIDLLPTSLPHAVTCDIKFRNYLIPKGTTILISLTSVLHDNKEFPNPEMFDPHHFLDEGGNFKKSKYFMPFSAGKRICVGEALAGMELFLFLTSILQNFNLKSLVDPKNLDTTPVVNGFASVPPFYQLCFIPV

inhibition at 120 µM [%]	Compound
84.5	OC(Cn1cncn1)(Cn1cncn1)c1ccc(F)cc1F [fluconazole, reference compound]

Biological target: Parkin (Homo sapiens (Human), UniProt O60260)
Sequence (O60260 whole entry): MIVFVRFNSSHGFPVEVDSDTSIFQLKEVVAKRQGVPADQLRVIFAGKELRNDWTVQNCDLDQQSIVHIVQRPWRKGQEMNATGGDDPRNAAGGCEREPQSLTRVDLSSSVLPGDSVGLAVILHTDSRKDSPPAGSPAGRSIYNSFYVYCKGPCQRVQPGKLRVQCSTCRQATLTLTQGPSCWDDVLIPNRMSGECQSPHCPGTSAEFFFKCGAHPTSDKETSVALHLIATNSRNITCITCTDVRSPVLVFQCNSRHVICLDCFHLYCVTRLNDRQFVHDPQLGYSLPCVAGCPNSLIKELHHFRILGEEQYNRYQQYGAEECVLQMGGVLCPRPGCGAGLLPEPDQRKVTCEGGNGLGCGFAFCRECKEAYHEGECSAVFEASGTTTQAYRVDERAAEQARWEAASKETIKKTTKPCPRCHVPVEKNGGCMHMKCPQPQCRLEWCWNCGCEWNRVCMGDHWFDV
Experiment: Primary HCI assay of EGFP-Parkin translocation to mitochondria
Format: cell-based
Details: primary assay screen, Parkin translocation to mitochondria
Experimental: GFP-Parkin is localized throughout the cell in unstressed cells but translocates to mitochondria when the mitochondrial membrane potential is compromised and Parkin is activated. After automated image acquisition of fixed cells, regions of interest of each cell were defined with the analysis software. […] To quantify the relocalization of GFP-Parkin to mitochondria, the ratio of the GFP intensity in the cytoplasm and the nucleus was calculated. Under non-stressed condition, this ratio is about 1. FIG. 1B is a bar graph showing the results of the assay with a Z factor (Z′) of 0.5-0.8, which indicates its robustness and usefulness as a screening assay. Validation of the assay has been performed by using PINK1 siRNA.
FIGS. 2A-2C show a primary HCI assay with CCCP titration. FIG. 2A is a graphic description of the primary HCI assay of EGFP-Parkin translocation. HeLa cells stably expressing GFP-Parkin were seeded with 1350 cells per well in 384-well plates (25 μL per well). Cells were allowed to attach overnight before drug was added 2× concentrated in a volume of 25 μL in triplicates. After 2 h, 50 μL of a 2× low-dose CCCP (yielding a final concentration of 3.5 μM CCCP) was added to all wells that contained test compounds and for the negative control. For positive control wells, CCCP was added in a final concentration of 10 μM. After 2 h incubation with CCCP, cells were fixed and labeled with Hoechst for at least 1 h before cells were imaged. […] Values were being normalized to negative and positive control values and plotted as % activity. Z′ was calculated for quality control. Positive controls were indicated in green, negative control wells in red. Drugs that lead to more than 50% activity are considered positive (blue).
Functional testing of compounds was performed using an established primary HCI assay for Parkin translocation, which correlates well with enzymatic activation (Fiesel et al., J. Cell Science (2014) 127:3488-3504; Fiesel et al., Human Mutation (2015) 36:774-786). In brief, 1400 HeLa cells stably expressing EGFP-Parkin were seeded into optical 384-well plates (Greiner BioOne) in 25 μL media and allowed to adhere for 40 h. Compounds 1, 2, 3, 4, and 31 were added to the plate as 2× concentrated stocks. Control wells were treated with equal volume of DMSO in media. After 2 h, unless otherwise stated, CCCP was added as 2× concentrated stock with a final assay concentration of 10 μM for PC wells and 3.5 μM for test and NC wells. This low dose of CCCP was experimentally determined by a dose response curve of CCCP to result in no Parkin translocation (FIG. 13). After another 2 h, cells were fixed in 4% paraformaldehyde for 10 min and stained with Hoechst 33342 (1:5000, Invitrogen) before plates were imaged and analyzed.
Image acquisition was performed on a BD Pathway 855 with the Attovision V1.6 software (BD Biosciences). Wells were imaged with a 20× objective using a 2×2 montage with laser autofocus. EGFP exposure time was 0.0175 sec, Hoechst 0.0015 sec. Raw images were not processed and directly analyzed using a build-in ‘RING—2 output’ algorithm. Values were exported and normalized using JMP 11 software and transferred to GraphPad Prism 7 for quality control, graphing and curve fitting for DRCs with a variable slope using four parameters. […] Values were normalized to both PC and NC values from 24 wells each per plate and the Z′ score was calculated. Plates with Z′<0.5 were repeated.

Compound	EC50 [µM]
O=C(Cn1ccnc1)Nc1ccc(-c2ccccc2)c(Cl)c1 [Compound 6]	2
O=C(Cn1ccnc1)Nc1ccc(OCC2CCCCC2)cc1 [Compound 8]	5
O=C(Cn1ccnc1)Nc1ccc(CN2CCc3ccccc32)cc1 [Compound 9]	5
O=C(Cn1ccnc1)Nc1ccc(C23CC4CC(CC(C4)C2)C3)cc1 [Compound 10]	5
O=C(Cn1ccnc1-c1ccncc1)Nc1ccc(-c2ccccc2)cc1 [Compound 11]	5
O=C(Cn1ccnc1)Nc1ccc(-c2ccccc2)c(C(F)(F)F)c1 [Compound 12]	5
O=C(Cn1ccnc1)Nc1nc(-c2ccccc2)co1 [Compound 13]	5
O=C(Cn1ccnc1)Nc1ccc(Oc2ccccc2)cc1 [Compound 14]	5
O=C(Cn1ccnc1)Nc1ccc(COC2CCCC2)cc1 [Compound 15]	5
N#Cc1ccc(Oc2ccc(NC(=O)Cn3ccnc3)cc2)cc1 [Compound 16]	5
CC(C)Cc1ccc(NC(=O)Cn2ccnc2)cc1 [Compound 17]	5
O=C(Cn1ccnc1)Nc1ccc(SC2CCCC2)cc1 [Compound 18]	5
Cc1nccn1CC(=O)Nc1ccc(-c2ccccc2)cc1 [Compound 19]	10
O=C(Cc1ccncc1)Nc1ccc(-c2ccccc2)cc1 [Compound 20]	10
O=C(Nc1ccc(-c2ccccc2)cc1)c1cn2c(n1)CCCC2 [Compound 21]	0.238
O=C(Cn1cnc2c1CCCC2)Nc1ccc(-c2ccccc2)cn1 [Compound 22]	0.246
O=C(Cn1cnc2c1CCCC2)Nc1ccc(-c2ccccn2)cc1 [Compound 23]	0.272
Cc1nccc(-c2ccc(NC(=O)Cn3cnc4c3CCCC4)cc2)n1 [Compound 24]	0.19
O=C(Cn1cnc2c1CCCC2)Nc1ccc(-c2ccccc2F)nn1 [Compound 25]	0.382
O=C(Cn1cnc2c1CCCC2)Nc1cnc(-c2ccccc2)nc1 [Compound 26]	0.938

Next, values leading:

EC50 [µM]	Compound
0.19	Cc1ccnc(-c2ccc(NC(=O)Cn3cnc4c3CCCC4)cc2)n1 [Compound 27]
0.134	Cc1cc(NC(=O)Cn2cnc3c2CCCC3)ccc1-c1ccncc1 [Compound 28]
2	O=C(Cn1ccnc1-c1ccccc1)Nc1ccc(-c2ccccc2)cc1 [Compound 29]
5	Cc1cc(NC(=O)Cn2ccnc2)ccc1-c1ccccc1 [Compound 30]
10	Cc1nc2c(c(N3CCCN(Cc4csc(C)n4)CC3)n1)CCCC2 [Compound 35]
> 10	COc1ccc(CN2CCCN(c3ncnc4c3CN(C)CC4)CC2)cc1 [Compound 36]
> 10	Cc1nc2c(c(N3CCN(C(=O)c4ccccc4)CC3)n1)CCCC2 [Compound 40]
0.707	Cc1nc2c(c(N3CCCN(Cc4noc(C5CC5)n4)CC3)n1)CCCC2 [Compound 42]
0.28	Cc1nc2c(c(N3CCCN(Cc4cccs4)CC3)n1)CCCC2 [Compound 43]
0.438	Cc1nc2c(c(N3CCN(Cc4ccccc4)C(C)(C)C3)n1)CCCC2 [Compound 44]
0.366	Cc1nc2c(c(N3CCCN(Cc4ccc(Cl)cc4)CC3)n1)CCCC2 [Compound 45]
0.203	c1ccc(CN2CCCN(c3ncnc4ncccc34)CC2)cc1 [Compound 46]

Test system: TA 1537
Experiment: Ames Test, strain TA 1537
Details: TA 1537, positive control 7.5 μg/plate (row printed 50; shifted)
Description: (§1) The test used amino acid-dependent strains of Salmonella typhimurium and Escherichia coli to detect point mutations which involved substitution, addition or deletion of one or a few DNA base pairs. Point mutations were introduced in the histidine (Salmonella typhimurium) or the tryptophan (Escherichia coli) operon, making the tester strains incapable of producing these amino acids. The test detected mutations that revert the mutations present in the bacteria, restoring the functional capability to synthesize histidine or tryptophan. The revertant bacteria were detected by the ability to grow in the absence of the amino acid required by the parent test strain. A mutagenic potential of a tested compound was assessed by exposing these bacterial strains to different concentrations of the compounds and estimating number of revertant colonies grown in the absence (trace quantities) of the amino acid.
(§2) DMSO was used as the negative control.
(§3) For each experiment, tester strain cultures were grown overnight in Oxoid nutrient broth #2 at 37° C. with shaking at 235 rpm to a density of 1-2×10^9 colony forming units/mL (OD540˜2).
(§4) The tester strain (10 μL of night culture) was mixed with the test agent (10 µL of the DMSO stock) and GM liquid medium (30 μL). The obtained mixture was incubated at room temperature for 5 min in a sterile 1.5 mL tube. Then, to the tube was added 200 μL of molten top agar stored at 44° C. to prevent solidifying. After mixing with a pipette, the mixture was poured onto the surface of a GM agar plate (2.0 mL of GM agar per plate). After solidifying the top agar, the plate was inverted and incubated at 37° C. for 48 hours. Then, results were expressed as number of revertant colonies per plate.

Compound	Mean ± SD
Nc1c2ccccc2nc2ccccc12 [9-aminoacridine, reference compound]	1119 ± 21.21 revertant colonies per plate

Test system: TA 98
Experiment: Ames Test, strain TA 98
Details: TA 98, positive control 0.1 μg/plate
Description: as §1, §2, §3, §4

Compound	Mean ± SD
O=[N+]([O-])c1ccc2c(c1)Cc1ccccc1-2 [2-nitrofluorene, reference compound]	7 ± 1.41 revertant colonies per plate
